Here are results for 23 molecules from ChEMBL document CHEMBL1201862, “PubChem BioAssay data set” (2004).

Usually AC50 stands for the midpoint of the concentration-response curve, whichever way the signal moves. Usually EC50 stands for the concentration that produces a half-maximal response. Broadly, the IC50 is the concentration that gives 50% inhibition.

Each structure is given as a SMILES string. Active and inactive are the calls of the source.

A short description of assay [1]: ZM109 Env clade C HIV-1 fusion inhibitors, dose response, HeLa effector, CEM target cells, luciferase, cherry-pick (AID 652058). The format is functional, cell-based.
Assay [2] is described as follows: inhibitors of clade B AD8 Env fusion, dose response, cell-based, cherry-pick (AID 652062).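 Note: luciferase signal from cell-cell fusion driven by HIV-1 clade B AD8 Env; potency is for inhibitors of fusion seen as a drop in luminescence.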 The format is functional.
Assay [3] is described as follows: inhibitors of HIV Env-driven cell fusion, dose response, cherry-pick (AID 652057). The assay is classed as functional, cell-based.
Assay [4] in a line: off-target signal loss in HeLa-CEM21 co-culture – HeLa F-luc CTL cells, cherry-picked, counter-screen for HIV-1 Env fusion inhibitor project, dose response (AID 652040).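 Note: potency for signal decrease marking cytotoxic or nonspecific inhibition.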 The format is functional, cell-based. (Counterscreens check selectivity or assay interference.)
Assay [5] in a line: cells. The format is functional, cell-based.
Assay [6] in a line: cells. The format is functional, cell-based. The source holds these as a separate data set.
The target of assay [7] is T1, Heat shock factor protein 1 (Mus musculus, UniProt P38532).
T1 sequence (P38532 whole entry): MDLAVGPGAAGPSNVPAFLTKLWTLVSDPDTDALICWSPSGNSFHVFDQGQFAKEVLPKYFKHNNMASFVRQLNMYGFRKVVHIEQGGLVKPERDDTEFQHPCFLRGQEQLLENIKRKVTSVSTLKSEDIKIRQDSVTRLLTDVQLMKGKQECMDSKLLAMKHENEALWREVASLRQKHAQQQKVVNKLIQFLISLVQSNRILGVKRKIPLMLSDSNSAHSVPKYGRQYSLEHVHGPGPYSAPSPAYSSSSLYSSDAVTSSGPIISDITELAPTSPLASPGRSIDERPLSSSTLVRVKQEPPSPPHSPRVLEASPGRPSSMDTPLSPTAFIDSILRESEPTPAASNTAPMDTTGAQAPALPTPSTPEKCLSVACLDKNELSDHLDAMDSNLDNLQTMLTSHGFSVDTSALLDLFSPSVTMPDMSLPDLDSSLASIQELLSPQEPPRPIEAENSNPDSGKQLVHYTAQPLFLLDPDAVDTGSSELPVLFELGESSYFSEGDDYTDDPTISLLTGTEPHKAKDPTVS
Kind of assay: inhibition of MG132-induced HSE-luciferase signal, confirmation, cell-based, NIH3T3, luminescence, dose retest (AID 2382).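 Note: NIH3T3 fibroblasts with HSF1-driven luciferase reporter stressed by proteasome inhibitor MG132; luminescence from HSF1-driven luciferase expression after 8 hours of MG132 stress.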 The format is functional.

For assay [8], the target named is T2, Protein skinhead-1 (Caenorhabditis elegans, UniProt P34707).
T2 sequence (P34707 whole entry): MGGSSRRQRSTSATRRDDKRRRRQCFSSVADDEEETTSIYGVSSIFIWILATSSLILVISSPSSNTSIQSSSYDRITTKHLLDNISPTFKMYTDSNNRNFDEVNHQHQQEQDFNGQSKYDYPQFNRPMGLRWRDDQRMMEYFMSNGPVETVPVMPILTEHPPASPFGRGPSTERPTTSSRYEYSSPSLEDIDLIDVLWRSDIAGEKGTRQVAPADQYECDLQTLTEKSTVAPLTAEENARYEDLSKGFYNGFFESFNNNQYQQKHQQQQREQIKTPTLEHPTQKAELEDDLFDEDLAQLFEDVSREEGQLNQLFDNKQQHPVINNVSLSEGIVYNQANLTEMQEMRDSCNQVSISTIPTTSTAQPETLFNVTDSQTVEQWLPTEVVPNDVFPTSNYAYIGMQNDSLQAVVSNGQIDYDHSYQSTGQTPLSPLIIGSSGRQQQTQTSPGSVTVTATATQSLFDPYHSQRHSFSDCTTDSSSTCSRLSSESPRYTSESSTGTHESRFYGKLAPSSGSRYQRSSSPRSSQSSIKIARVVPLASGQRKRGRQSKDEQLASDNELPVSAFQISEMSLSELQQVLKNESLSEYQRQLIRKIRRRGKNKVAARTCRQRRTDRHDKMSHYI
The format is functional.

In assay [9] the target is T3, Replicative DNA helicase DnaB (Mycobacterium tuberculosis, UniProt P9WMR3).
T3 sequence (P9WMR3 whole entry): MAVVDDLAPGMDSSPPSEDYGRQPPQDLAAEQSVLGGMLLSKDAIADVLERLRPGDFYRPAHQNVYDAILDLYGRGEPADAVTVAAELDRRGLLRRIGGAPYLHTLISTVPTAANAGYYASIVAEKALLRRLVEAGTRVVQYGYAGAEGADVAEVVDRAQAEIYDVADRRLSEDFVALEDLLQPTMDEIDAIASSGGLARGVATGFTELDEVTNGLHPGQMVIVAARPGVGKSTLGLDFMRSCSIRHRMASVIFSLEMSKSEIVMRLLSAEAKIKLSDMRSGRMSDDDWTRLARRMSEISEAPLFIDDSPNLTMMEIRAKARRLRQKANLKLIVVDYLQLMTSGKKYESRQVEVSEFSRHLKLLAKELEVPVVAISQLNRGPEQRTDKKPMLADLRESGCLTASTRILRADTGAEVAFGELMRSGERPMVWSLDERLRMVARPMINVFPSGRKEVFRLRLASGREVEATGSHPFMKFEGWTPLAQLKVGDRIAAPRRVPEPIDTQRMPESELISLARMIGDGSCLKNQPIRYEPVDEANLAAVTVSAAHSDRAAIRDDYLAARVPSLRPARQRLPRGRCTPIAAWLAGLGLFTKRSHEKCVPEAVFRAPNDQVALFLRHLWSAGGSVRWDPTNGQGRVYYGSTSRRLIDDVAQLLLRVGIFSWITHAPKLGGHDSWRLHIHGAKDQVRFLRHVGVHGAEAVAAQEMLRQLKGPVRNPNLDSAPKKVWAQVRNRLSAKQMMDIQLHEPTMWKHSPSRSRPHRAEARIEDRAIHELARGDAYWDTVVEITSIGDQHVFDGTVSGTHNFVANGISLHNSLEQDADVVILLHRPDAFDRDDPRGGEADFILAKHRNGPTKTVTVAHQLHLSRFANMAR
Kind of assay: DnaB intein splicing inhibitors, dose response, biochemical, cell-free fluorescence (AID 449749). The format is functional.

Assay [10] addresses T4, Protein RecA (Mycobacterium tuberculosis, UniProt P9WHJ3).
T4 sequence (P9WHJ3 whole entry): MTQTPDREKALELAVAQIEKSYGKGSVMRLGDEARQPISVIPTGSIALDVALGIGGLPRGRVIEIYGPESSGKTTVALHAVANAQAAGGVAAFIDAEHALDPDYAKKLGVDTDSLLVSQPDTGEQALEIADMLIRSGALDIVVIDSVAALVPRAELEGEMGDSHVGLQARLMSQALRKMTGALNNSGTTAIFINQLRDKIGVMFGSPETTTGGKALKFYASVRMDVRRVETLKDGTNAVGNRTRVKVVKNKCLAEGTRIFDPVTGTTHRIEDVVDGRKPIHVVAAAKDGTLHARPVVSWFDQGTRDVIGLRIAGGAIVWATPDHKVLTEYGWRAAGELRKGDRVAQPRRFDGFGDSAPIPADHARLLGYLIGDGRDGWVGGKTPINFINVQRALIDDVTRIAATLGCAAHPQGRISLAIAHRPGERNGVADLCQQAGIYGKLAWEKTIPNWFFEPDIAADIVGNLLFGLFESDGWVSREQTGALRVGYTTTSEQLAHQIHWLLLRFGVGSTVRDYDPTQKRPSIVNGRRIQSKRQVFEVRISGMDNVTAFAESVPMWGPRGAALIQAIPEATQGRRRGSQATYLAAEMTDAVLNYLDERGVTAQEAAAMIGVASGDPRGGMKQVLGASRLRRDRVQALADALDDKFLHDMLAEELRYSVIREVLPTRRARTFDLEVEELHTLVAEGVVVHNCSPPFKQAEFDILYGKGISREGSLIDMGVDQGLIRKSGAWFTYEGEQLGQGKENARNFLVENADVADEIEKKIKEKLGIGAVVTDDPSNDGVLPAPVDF
Kind of assay: Fluorescence Cell-Free Homogeneous Dose Retest to Identify Inhibitors of RecA-Intein Splicing Activity. [Related pubchem assays (depositor defined):AID2097, AID2223, AID489010, AID492950]. The assay is classed as functional.

Assay [11] deals with T5, Rac GTPase-activating protein 1 (Homo sapiens, UniProt Q9H0H5).
T5 sequence (Q9H0H5 whole entry): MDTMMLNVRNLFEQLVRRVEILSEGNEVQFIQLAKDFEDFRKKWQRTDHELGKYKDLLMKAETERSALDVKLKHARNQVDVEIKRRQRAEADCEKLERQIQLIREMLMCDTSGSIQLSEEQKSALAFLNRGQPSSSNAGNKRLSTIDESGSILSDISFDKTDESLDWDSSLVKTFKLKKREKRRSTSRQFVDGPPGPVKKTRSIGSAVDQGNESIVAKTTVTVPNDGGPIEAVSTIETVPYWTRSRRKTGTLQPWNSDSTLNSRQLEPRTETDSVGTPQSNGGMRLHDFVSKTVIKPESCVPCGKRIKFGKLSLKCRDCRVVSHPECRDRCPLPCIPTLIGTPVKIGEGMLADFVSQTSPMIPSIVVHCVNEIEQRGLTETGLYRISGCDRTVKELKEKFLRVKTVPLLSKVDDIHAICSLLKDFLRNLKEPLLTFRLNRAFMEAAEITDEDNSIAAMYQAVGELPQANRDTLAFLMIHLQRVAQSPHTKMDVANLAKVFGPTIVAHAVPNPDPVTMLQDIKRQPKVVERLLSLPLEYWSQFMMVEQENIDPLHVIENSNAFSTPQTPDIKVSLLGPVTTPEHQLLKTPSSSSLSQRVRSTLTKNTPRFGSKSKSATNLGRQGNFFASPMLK
Kind of assay: MgcRacGAP GTPase-activating activity inhibitors, confirmation, biochemical, ADP Hunter fluorescence, primary and confirmatory (AID 624330). The format is functional.

As to `COc1ccc(CCN(Cc2cccs2)S(=O)(=O)c2ccc(-n3cnnn3)cc2)cc1OC`, the AC50 in assay [1] was 20.3 µM (active); in assay [2] it was 9.27 µM (active); in [3] it was 12.7 µM (active).

As to `CC1CCN(C(=O)c2ncn3c2C(=O)NC[C@@H]3C)CC1`, the AC50 in [1] is 15.7 µM (active); in [4], 18 µM (active); in assay [3], 3.59 µM (active).

`Cc1cccc(NC(=O)Cc2noc3ccccc23)c1`: the EC50 in [5] was 115 µM (active); in [6], > 350 µM (not active).

Take `O=C(NCC1CCCO1)c1sc2cc(Cl)ccc2c1Cl` (configuration not stated): the EC50 in assay [5] is 66.4 µM (active); in assay [6], > 350 µM (not active).

As to `Cc1ccc2nc(-c3ccccc3NC(=O)CCC(=O)O)c(O)nc2c1`, the values for the EC50 in [5], in assay [7] and in assay [6] were > 350 µM (not active), > 195 µM (not active) and > 350 µM (not active), respectively.

On to `CCOc1cc2c(cc1OCC)C(C(=O)O)C(c1cc(OC)c(OC)c(OC)c1)N(C)C2=O` (configuration not stated), for which the IC50 in assay [8] is > 100 µM (inactive).

As to `CCOC(=O)c1ccccc1NC(=O)Cc1ccccc1OC`, the IC50 in [8] was > 100 µM (inactive).

With `COc1ccc(S(=O)(=O)N(C)C[C@@H]2Oc3ncc(-c4cc5ccccc5o4)cc3C(=O)N([C@H](C)CO)C[C@@H]2C)cc1`, the AC50 in assay [2] was 16.4 µM (active); in assay [3], 10.5 µM (active).

For `CCOc1ccccc1NC(=O)COc1ccc2c(c1)OCO2`, the EC50 in assay [5] and in assay [6] was > 350 µM (not active) each time.

Take `CN1C(=O)c2cc(NS(=O)(=O)c3ccccc3F)ccc2OC[C@@H]2O[C@H](CC(=O)NC3Cc4ccccc4C3)CC[C@@H]21`: the AC50 in assay [1] is 2.99 µM (active); in assay [2], 8.06 µM (active); in assay [3], 2.89 µM (active).

As to `Cc1ccc(-c2nc(CS(=O)(=O)CC(=O)NC3CCC(C)CC3)c(C)o2)cc1` (configuration not stated), the EC50 in [5] and in assay [6] was > 350 µM (not active) in each case.

Regarding `CCCCCCn1c(N2CCC(C(N)=O)CC2)nc2c1c(=O)n(C)c(=O)n2C`, in assay [9], the AC50 was > 380 µM (inactive). Moreover, the IC50 in [8] was > 100 µM (inactive). Moreover, the EC50 in assay [10] was > 380 µM (inactive).

On to `CSc1nsc(SCc2ccc(F)cc2)n1`, for which the IC50 in [8] is 18.9 µM (active).

With `COc1ccc(NC(=O)Nc2ccc3c(c2)C(=O)N([C@H](C)CO)C[C@H](C)[C@H](CN(C)S(=O)(=O)c2ccc(F)cc2)O3)cc1`, the AC50 in [1] is 16.6 µM (active); in [2], 27.5 µM (active); in [3] it was 13 µM (active).

In the case of `N#Cc1ccccc1OCCCN1CCC(Cc2ccccc2)CC1`, the EC50 in assay [5] and in [6] was > 350 µM (not active) each time. Moreover, the IC50 in assay [11] is 132 µM (active).

In the case of `COc1ccc(C)cc1NC(=O)c1ccc(N(C)S(C)(=O)=O)cc1`, the EC50 in assay [5] and in [6] was > 350 µM (not active) in each case.

On to `Cc1onc(-c2ccccc2)c1C(=O)OCCOc1cccc(Cl)c1`, for which the AC50 in assay [4] was > 70 µM (inactive).

As to `CCOC(=O)CN1C(=N)N(c2nc(NC(C)C)nc(NC(C)C)n2)CC1=O`, the EC50 in [5] and in assay [6] was > 350 µM (not active) throughout.

As to `O=C(c1nc[nH]c1C(=O)N1CCc2ccccc2C1)N1CCc2ccccc2C1`, the IC50 in assay [8] is > 100 µM (inactive).

As to `C1CC1Cc1noc(CN2CCN(CC3CC3)CC2)n1`, the EC50 in [5] and in [6] was > 350 µM (not active) throughout.

Take `CN(C[C@H](Cc1ccccc1)N(C[C@H](c1ccccc1)N(CCc1ccccc1)N=O)N=O)N=O`: the AC50 in assay [1] was 9.49 µM (active); in [4] it was 35.2 µM (active); in [3], 7.62 µM (active).

Turning to `O=C(CN1CCOCC1)c1cccc2ccccc12`, the IC50 in assay [8] is > 100 µM (inactive).

With `CSc1cccc(NC(=O)c2cccc3cccnc23)c1`, the IC50 in [8] is 14.7 µM (active).
